SMILES | melting point [°C]
CCOC(=O)C(O)(CC#N)c1nccn1C (configuration not stated) | 117 to 119
CS(=O)(=O)c1nc2cc(Br)cnc2[nH]1 | 222 to 224
O=C(O)c1cccc(Nc2ccccc2)c1 | 129 to 131
NC(=O)N1CCCC1 | 222 to 224
FC(F)Oc1ccc(CNC23CC4CC(CC(C4)C2)C3)cc1 | 283 to 285
CCCC=C(C#N)C(=O)O | 96 to 98
CCNC(=O)CN1CCNCC1 | 83 to 85
Clc1ncnc2c1CCCCC2 | 50 to 52
O=C(O)CCc1nccs1 | 123 to 125
O=C(NCO)c1ccc(Cl)cc1 | 145 to 147
NC(=O)COc1cccc(C(=O)O)c1 | 223 to 225
COCc1ccc(C(=O)O)cc1OC | 164 to 166
O=C(O)c1sc2cccc(Cl)c2c1Cl | 273 to 275
Oc1ncnc(Cl)c1I | 274 to 276
NNC(=O)c1cc([N+](=O)[O-])c[nH]1 | 280 to 282
N#CCC(=O)Nc1ccc(S(N)(=O)=O)cc1 | 215 to 217
Nc1ccc2nc(N3CCCC3)sc2c1 | 201 to 203
NC(=O)Cc1cccc(O)c1 | 114 to 116
OCCOc1cncc(Br)c1 | 51 to 53
Cc1cc(Br)c2c(c1)C(=O)CCO2 | 84 to 86
CSc1nn(C)c(N)c1C#N | 123 to 125

SMILES | melting point [°C]
COc1ccccc1C1(C(=O)O)CC1 | 131 to 133
CCOc1ccc(S(=O)(=O)NC(=O)c2ccccc2)cc1 | 85 to 87
O=C(O)c1cccc(S(=O)(=O)Nc2ccccc2Cl)c1 | 186 to 188
O=C1CCCC1c1ccccc1 (configuration not stated) | 35 to 37
Cn1c(Cl)nnc1-c1ccccc1 | 161 to 163
CCOC(=O)c1sc(-c2cccc(Br)c2)cc1N | 97 to 99
CC(C)(C)S(=O)(=O)CC(=O)O | 89 to 91
CCOCCN1C(=O)C(=O)c2ccccc21 | 65 to 67
CS(=O)(=O)c1cc(Cl)c(C(=O)O)c(Cl)c1 | 144 to 146
Cc1cc2c(N3CCCC3C(=O)O)ncnc2s1 (configuration not stated) | 129 to 131
CNC(=O)NC1(C(=O)O)CCCC1 | 165 to 167
CC(C)(C)OC(=O)N1CCCC(C(=O)NC2CCCNC2)C1 (configuration not stated) | 116 to 118
CCOC(=O)C1CC1c1ccc(OC)cc1 (configuration not stated) | 78 to 80
Cc1nccn1-c1ccc(F)cc1N | 153 to 155
O=C1NC(=O)C2CN(Cc3ccccc3)CC12 (configuration not stated) | 91 to 93
O=C(O)C1CCN(C(=O)/C=C/c2ccccc2)CC1 | 191 to 196
Cc1ccc(C(=O)O)cc1S(=O)(=O)Cl | 140 to 147
CC(C)(C)OC(=O)N1CC(OCC(=O)O)C1 | 93 to 95
CC(Cl)C(=O)Nc1ccc(Cl)c(C(F)(F)F)c1 (configuration not stated) | 130 to 135
COC(=O)Cn1ncc2c(=O)[nH]cnc21 | 212 to 214
CC(=O)N(C)c1ccccc1N | 146 to 148

SMILES | melting point [°C]
COc1cc(N)c(C(=O)O)c(OC)c1 | 106 to 108
NC(=O)CCc1csc(N)n1 | 141 to 143
COc1ccccc1NC(=O)COc1ccc(C(=O)O)cc1OC | 184 to 186
O=C(O)CCn1cnc2sc3c(c2c1=O)CCCC3 | 193 to 195
Cc1c(C=O)cc(C#N)n1C | 85 to 97
CC(C)(C)CNC(=O)Nc1ccc(Cl)c(C(=O)O)c1 | 208 to 210
COc1cc(C(=O)O)ccc1OCC(C)C | 145 to 147
O=[N+]([O-])c1cnc(Cl)nc1NC1CC1 | 114 to 116
COc1ccc(Oc2ccc(C=O)cc2[N+](=O)[O-])cc1 | 67 to 69
CCC1(C(=O)O)CCN(C(=O)c2ccccc2)CC1 | 154 to 156
Cn1cc(C2CC2C(=O)O)cn1 (configuration not stated) | 138 to 140
CN1CCN(c2cccc(Cl)c2C=O)CC1 | 80 to 82
Nn1c(SCC(=O)O)nnc1C1CCCCC1 | 159 to 161
CC1C=CC2C(=O)N(CC(F)(F)F)C(=O)C2C1C(=O)O (configuration not stated) | 166 to 168
O=C(Nc1ccsc1C(=O)O)c1ccc(Br)cc1 | 240 to 242
NCCCCN1CCN(CCO)CC1 | 90 to 92
CN(C)CCCNC(=O)c1cccnc1Cl | 97 to 101
CC(C)NC(=O)Nc1ccc(CN)cc1 | 133 to 135
O=C(Nc1ccccn1)OCC(F)(F)F | 150 to 152

Second part, the compound after the results:

melting point [°C] | SMILES
48 to 50 | CC(N)c1ccc(-n2cccn2)cc1 (configuration not stated)
180 to 184 | Cc1ccc2c(c1)C(=O)C(=O)N2
144 to 146 | O=C1CNC(=O)N1C1CC1
85 to 87 | CCc1cccc(NC(N)=S)c1
118 to 120 | COc1ccc(CNC(=O)C2CCNCC2)cc1
68 to 70 | Cc1c(Cl)cccc1N1C(=O)C=CC1=O
209 to 211 | NNc1nc2cc(Cl)ccc2s1
124 to 126 | CC1Cc2ccccc2N1c1ccccc1C(=O)O (configuration not stated)
150 to 152 | Nc1nc(-c2ccccc2)c(-c2ccccc2)o1
197 to 199 | COc1cccc(-n2c(S)nc(O)cc2=O)c1
91 to 93 | CC(=O)c1cccc(NS(C)(=O)=O)c1
35 to 37 | O=C(NCCCN1CCCC1=O)OCC(F)(F)F
108 to 110 | O=C1C(Br)CCCN1c1ccccc1Cl (configuration not stated)
135 to 137 | CCNc1nnc(C)c2ccccc12
176 to 178 | COc1cc2c(cc1[N+](=O)[O-])C(=O)CCC2
103 to 105 | N#Cc1ccc(Cn2cnc3ccccc32)cc1
213 to 215 | O=C(O)C=Cc1ccc(S(=O)(=O)NCc2ccco2)cc1
169 to 171 | CC1(c2ccccc2)NC(=O)N(N)C1=O (configuration not stated)

melting point [°C] | SMILES
104 to 106 | COC(=O)CNc1ccncc1[N+](=O)[O-]
150 to 152 | CCNC(=O)NC(C)(C)C(=O)O
81 to 83 | N#Cc1ccc(S)c(Cl)c1
193 to 195 | O=C(CCl)NCc1ccc(C(=O)O)cc1
88 to 90 | Cc1cncc(-n2ccnc2)c1
208 to 210 | Cc1oncc1C(=O)Nc1ccc(CC(=O)O)cc1
168 to 170 | CC(C)c1c(C(=O)O)cnn1-c1ccc(C(F)(F)F)cn1
156 to 158 | COc1cccc(C(=O)NN2C(=O)CSC2=S)c1
43 to 45 | N#CCc1cc(Br)ccc1F
110 to 120 | CCOC(=O)c1cnc(SC)nc1N
289 to 291 | NC(=O)c1ccc(Oc2ccc(C(=O)O)cc2)cc1
111 to 113 | COc1cc(C=O)c(SC)cc1OC
169 to 171 | Cc1ccccc1C1(C)NC(=O)NC1=O (configuration not stated)
124 to 126 | NNC(=O)NC1CCCC1
84 to 86 | OC1CCN(c2cnnc3ccccc23)CC1
49 to 51 | CCC(Br)C(=O)c1ccc(OC)cc1 (configuration not stated)
146 to 148 | O=CN1CCc2cc(C(=O)CCl)ccc21
162 to 164 | O=C(O)C1CCN(C(=O)c2ccc(C(F)(F)F)cc2)CC1
